Common to all, as to conditions: Compound concentration 10 µM
Test [1] concerns the target T1, Alpha-1B adrenergic receptor (Homo sapiens) (UniProt P35368).
T1 sequence (whole entry): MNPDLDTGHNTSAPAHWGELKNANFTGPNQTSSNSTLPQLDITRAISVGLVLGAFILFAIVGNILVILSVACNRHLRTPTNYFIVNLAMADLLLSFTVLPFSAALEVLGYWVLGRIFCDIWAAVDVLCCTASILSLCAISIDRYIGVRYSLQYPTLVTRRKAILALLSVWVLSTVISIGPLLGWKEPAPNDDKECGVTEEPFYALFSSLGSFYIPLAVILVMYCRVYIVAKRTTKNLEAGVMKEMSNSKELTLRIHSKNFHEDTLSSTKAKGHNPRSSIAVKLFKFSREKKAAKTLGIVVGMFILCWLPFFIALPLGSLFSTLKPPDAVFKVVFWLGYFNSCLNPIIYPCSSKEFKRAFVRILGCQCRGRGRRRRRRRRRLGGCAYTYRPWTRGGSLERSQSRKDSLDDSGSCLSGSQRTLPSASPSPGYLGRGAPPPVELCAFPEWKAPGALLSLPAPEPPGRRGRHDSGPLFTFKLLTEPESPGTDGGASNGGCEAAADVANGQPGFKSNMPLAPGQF

Test [2] deals with T2, Alpha-2C adrenergic receptor (Homo sapiens) (UniProt P18825).
T2 sequence (whole entry): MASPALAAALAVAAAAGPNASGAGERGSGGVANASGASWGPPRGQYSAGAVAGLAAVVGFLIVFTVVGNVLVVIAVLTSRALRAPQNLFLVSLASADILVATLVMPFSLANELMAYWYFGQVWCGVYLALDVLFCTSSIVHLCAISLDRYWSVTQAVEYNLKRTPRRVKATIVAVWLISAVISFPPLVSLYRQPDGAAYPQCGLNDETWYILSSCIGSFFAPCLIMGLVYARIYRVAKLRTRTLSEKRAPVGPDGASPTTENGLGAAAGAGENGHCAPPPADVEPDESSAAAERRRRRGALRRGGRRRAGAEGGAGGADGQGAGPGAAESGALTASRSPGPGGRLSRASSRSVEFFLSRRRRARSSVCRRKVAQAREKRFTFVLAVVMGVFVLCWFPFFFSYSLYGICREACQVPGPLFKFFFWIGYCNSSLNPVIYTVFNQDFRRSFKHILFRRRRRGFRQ

The target of test [3] is Muscarinic acetylcholine receptor M3 (Homo sapiens) (UniProt P20309).
Test [4] addresses Beta-3 adrenergic receptor (Homo sapiens) (UniProt P13945).
For test [5], the target named is Translocator protein (Homo sapiens) (UniProt P30536).
Test [6] deals with D(1A) dopamine receptor (Homo sapiens) (UniProt P21728).
In test [7] the target is D(2) dopamine receptor (Homo sapiens) (UniProt P14416).
Test [8] deals with T3, D(4) dopamine receptor (Homo sapiens) (UniProt P21917).
T3 sequence (whole entry): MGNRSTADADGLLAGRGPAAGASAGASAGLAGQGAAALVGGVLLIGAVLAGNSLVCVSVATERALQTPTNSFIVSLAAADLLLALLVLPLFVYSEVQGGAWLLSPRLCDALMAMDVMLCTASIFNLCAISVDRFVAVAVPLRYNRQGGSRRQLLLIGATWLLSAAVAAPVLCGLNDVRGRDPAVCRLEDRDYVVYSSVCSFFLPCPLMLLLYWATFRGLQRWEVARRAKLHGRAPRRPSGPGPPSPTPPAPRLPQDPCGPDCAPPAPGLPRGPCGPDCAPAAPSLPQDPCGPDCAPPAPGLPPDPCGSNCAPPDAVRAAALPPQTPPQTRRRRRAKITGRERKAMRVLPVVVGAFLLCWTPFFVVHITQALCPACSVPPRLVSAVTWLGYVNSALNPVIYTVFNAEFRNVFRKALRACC

Test [9] deals with T4, Alpha-2B adrenergic receptor (Homo sapiens) (UniProt P18089).
T4 sequence (whole entry): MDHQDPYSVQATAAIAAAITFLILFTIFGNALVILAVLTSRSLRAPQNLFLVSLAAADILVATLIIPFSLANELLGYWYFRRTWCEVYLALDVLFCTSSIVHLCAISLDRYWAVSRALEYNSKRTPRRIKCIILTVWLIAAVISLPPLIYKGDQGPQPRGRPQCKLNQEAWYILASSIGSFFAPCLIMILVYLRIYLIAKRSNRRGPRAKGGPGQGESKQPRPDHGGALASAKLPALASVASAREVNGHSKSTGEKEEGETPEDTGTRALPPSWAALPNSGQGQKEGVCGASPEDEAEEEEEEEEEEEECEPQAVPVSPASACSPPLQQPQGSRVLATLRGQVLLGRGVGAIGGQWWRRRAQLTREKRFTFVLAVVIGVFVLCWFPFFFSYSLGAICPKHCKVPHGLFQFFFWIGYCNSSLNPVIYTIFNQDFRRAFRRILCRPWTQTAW

Test [10] concerns the target Sigma intracellular receptor 2 (Homo sapiens) (UniProt Q5BJF2).
The target in test [11] is T5, 5-hydroxytryptamine receptor 3A (Homo sapiens) (UniProt P46098).
T5 sequence (whole entry): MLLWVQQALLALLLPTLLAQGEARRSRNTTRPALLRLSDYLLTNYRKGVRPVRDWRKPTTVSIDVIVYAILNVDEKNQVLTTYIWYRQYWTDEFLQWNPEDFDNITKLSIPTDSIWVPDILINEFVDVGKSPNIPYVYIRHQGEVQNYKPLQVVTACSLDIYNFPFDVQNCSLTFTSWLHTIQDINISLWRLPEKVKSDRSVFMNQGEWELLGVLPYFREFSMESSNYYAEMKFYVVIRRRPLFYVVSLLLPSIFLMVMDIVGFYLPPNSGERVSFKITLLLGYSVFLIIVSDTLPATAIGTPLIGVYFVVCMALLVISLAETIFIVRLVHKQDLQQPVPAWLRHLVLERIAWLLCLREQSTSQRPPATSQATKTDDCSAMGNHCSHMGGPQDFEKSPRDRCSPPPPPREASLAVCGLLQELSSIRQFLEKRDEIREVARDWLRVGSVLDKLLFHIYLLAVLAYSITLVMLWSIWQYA

Test [12] addresses Histamine H4 receptor (Homo sapiens) (UniProt Q9H3N8).
In test [13] the target is Sodium-dependent noradrenaline transporter (Homo sapiens) (UniProt P23975).

These results are taken from ChEMBL document CHEMBL5442219.

As a reminder, the inhibition is the drop in the measured response relative to a control, in per cent.

Sequence of Muscarinic acetylcholine receptor M3 (Homo sapiens) (P20309 whole entry, looked up): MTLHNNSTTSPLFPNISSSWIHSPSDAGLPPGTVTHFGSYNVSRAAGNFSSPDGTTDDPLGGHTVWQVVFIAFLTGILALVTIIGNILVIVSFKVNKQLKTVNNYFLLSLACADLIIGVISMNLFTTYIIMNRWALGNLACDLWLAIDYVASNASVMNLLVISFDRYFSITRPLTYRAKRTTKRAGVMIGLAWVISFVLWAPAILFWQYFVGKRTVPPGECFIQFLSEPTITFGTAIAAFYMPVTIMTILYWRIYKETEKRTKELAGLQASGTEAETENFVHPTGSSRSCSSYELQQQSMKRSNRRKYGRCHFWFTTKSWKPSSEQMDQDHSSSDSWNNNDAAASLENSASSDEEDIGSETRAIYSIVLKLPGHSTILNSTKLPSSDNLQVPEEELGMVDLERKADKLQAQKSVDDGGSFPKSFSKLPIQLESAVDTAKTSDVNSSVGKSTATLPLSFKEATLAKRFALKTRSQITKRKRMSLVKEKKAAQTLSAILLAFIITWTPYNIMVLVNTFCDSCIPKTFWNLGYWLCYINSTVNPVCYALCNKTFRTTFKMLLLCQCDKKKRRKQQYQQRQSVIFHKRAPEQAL
Sequence of Sigma intracellular receptor 2 (Homo sapiens) (Q5BJF2 whole entry): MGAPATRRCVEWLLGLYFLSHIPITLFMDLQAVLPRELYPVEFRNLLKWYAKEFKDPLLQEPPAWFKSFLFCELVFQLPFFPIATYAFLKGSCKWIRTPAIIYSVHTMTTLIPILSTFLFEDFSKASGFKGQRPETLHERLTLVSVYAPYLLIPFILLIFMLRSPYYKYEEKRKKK
Sequence of Translocator protein (Homo sapiens) (P30536 whole entry): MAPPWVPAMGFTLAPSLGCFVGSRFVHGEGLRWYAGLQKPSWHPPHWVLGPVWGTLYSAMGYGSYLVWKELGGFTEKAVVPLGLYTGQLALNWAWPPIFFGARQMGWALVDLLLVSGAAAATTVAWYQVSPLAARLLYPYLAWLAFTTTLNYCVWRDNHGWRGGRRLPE
Sequence of D(1A) dopamine receptor (Homo sapiens) (P21728 whole entry): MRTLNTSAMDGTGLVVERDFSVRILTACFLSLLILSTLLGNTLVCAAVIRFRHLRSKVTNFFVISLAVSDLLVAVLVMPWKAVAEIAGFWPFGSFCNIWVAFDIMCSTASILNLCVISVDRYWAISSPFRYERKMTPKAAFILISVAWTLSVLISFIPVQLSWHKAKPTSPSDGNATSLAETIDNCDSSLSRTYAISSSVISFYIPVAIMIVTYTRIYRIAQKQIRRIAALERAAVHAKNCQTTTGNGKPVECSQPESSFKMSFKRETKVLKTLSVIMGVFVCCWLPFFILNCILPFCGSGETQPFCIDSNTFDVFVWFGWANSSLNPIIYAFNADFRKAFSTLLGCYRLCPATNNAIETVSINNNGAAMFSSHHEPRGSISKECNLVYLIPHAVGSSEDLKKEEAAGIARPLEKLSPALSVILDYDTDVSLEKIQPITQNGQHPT
Sequence of Histamine H4 receptor (Homo sapiens) (Q9H3N8 whole entry): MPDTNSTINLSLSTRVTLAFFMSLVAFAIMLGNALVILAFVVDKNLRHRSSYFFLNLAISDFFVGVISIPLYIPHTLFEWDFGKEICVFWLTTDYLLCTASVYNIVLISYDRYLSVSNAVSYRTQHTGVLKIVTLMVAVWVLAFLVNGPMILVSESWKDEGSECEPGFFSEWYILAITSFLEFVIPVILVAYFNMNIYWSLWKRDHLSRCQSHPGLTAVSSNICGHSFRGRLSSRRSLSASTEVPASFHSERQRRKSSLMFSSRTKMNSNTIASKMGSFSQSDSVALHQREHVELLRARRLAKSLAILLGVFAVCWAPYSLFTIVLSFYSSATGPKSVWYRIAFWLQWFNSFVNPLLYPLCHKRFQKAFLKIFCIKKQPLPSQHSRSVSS
Sequence of D(2) dopamine receptor (Homo sapiens) (P14416 whole entry): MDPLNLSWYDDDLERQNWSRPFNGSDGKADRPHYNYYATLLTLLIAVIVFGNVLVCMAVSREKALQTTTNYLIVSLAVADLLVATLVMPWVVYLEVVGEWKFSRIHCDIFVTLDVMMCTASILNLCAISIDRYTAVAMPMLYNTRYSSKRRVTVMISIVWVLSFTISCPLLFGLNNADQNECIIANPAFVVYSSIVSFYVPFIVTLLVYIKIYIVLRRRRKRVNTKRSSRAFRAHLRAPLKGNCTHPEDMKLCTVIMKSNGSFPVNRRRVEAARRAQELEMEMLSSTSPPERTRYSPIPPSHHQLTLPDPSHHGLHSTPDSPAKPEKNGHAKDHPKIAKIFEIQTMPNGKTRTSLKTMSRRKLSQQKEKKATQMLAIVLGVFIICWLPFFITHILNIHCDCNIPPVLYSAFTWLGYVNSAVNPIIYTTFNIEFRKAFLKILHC
Sequence of Beta-3 adrenergic receptor (Homo sapiens) (P13945 whole entry, looked up): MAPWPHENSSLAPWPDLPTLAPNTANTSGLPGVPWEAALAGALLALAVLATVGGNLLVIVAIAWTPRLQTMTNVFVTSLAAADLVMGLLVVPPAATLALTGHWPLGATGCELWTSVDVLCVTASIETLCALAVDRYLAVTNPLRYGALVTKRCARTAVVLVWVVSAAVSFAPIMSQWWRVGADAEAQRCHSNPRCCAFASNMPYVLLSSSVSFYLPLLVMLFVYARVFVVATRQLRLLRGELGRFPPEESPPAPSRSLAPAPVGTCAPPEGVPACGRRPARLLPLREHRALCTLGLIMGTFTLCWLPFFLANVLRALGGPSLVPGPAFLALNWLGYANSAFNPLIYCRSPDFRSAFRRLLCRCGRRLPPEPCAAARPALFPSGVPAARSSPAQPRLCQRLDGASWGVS
Sequence of Sodium-dependent noradrenaline transporter (Homo sapiens) (P23975 whole entry): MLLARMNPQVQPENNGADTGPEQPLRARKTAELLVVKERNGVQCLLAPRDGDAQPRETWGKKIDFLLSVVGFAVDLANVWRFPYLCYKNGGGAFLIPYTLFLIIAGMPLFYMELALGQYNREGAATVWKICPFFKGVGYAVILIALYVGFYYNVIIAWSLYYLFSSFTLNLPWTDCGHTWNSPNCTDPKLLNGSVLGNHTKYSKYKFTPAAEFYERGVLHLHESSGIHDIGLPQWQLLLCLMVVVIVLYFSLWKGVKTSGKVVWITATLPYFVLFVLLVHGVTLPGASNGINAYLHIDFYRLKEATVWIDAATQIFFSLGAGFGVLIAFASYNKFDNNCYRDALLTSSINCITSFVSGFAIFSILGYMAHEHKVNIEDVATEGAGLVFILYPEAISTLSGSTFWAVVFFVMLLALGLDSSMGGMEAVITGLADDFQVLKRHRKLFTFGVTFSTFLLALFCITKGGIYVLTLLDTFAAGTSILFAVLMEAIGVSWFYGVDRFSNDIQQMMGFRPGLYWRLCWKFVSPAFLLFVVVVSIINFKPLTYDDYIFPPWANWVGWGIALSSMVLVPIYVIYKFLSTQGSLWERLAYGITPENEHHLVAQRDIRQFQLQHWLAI

For `O=C(O)CC/C=C\C[C@@H]1CO[C@H](c2ccccc2Cl)O[C@@H]1c1ccccc1O`, the inhibition is -9.67% in [1]; -7.17% in test [2]; 6.61% in [3]; 29.5% in test [4]; 8.35% in test [5]; -0.4% in test [6]. In addition, in [7], the inhibition was 4.25%.
Turning to `CN(C(=O)Cc1ccc(Cl)c(Cl)c1)C(CN1CCCC1)c1cccc(OCC(=O)O)c1` (configuration not stated), the inhibition is -5.18% in test [8]; 5.65% in test [9]; 3.8% in test [2]; 9.38% in test [3]; -9.83% in [4]; 21.5% in [5]. Also, the inhibition is 21.9% in test [10], -3.77% in test [7], 7.24% in test [11] and 13.7% in test [12].
With `Cc1c(OCc2cccc(-c3ccc(C(=O)O)cc3)c2)cc2c(c1C)C(=O)C(C1CCCC1)C2` (configuration not stated), the inhibition was 44% in [8]; 63.1% in test [1]; 34.5% in test [3]; 76.5% in test [4]; 17.6% in [5]; -5.51% in test [6]. Besides, the inhibition in test [10] was -3.24%; in test [7] it was -2.54%; in test [11], -4.07%; in test [12], 14.3%.
In the case of `COc1ccccc1CN[C@H]1C2CCN(CC2)[C@H]1C(c1ccccc1)c1ccccc1`, the inhibition in [8] was 15.3%; in test [9], 3.23%; in [1], 1.04%; in test [2], 1.59%; in [3] it was 13.3%; in [4] it was -1.7%. For the same molecule, the inhibition in [5] was 30.2%; in [10], 62.5%; in test [7] it was 9.32%; in test [11], 13.6%; in [12], 27.6%.
Consider `Cc1cc(C)cc(C(=O)N(C)[C@H](Cc2ccc(-c3ccccc3)cc2)C(=O)N[C@@H](Cc2c[nH]c3ccccc23)C(=O)O)c1`, for which the inhibition was 11.8% in test [8]; 7.27% in test [9]; 1.27% in test [1]; 11.1% in test [2]; 0.07% in test [3]; 34.4% in test [4]. For the same molecule, the values for the inhibition in test [5] and in test [12] were 28.8% and -4.33%, respectively.
With `Cc1cc(NC(=O)Nc2ccc(N(C)C)cc2)c2cc(F)cc(F)c2n1`, the inhibition was 25.9% in test [8]; 3.9% in test [9]; 35.9% in [13]; 14% in [1]; 9.7% in [2]; 18.1% in test [4]. Besides, the inhibition in [5] was 8.35%; in test [6] it was 29.1%; in [10] it was 1.52%; in test [7], 52.2%; in test [11], 7.73%; in test [12], 5.25%.
On to `c1ccc(N2CCN(Cc3nc4ccccc4[nH]3)CC2)nc1`, for which the inhibition in test [8] was 87.2%; in [2] it was 4.37%; in test [3], -4.76%; in test [4], 17.4%; in [5] it was 6.18%; in test [10], 1.4%. Also, the inhibition in [7] was 22.3%; in [11] it was -2.37%.
Take `C[C@H](NC[C@H](O)CP(=O)(O)CC1CCCCC1)c1ccc(Cl)c(Cl)c1`: the inhibition in test [8] was 13.4%; in test [1], 6.11%; in test [2], -5.96%; in [3], -3.76%; in [4], 38.3%; in [10] it was 26.7%. The inhibition in [7] was 10.4%; in test [11], 6.3%; in test [12], 1.86%.
Turning to `CCCCN(CCCC)C(=O)CN1C[C@@H](c2ccc3c(c2)OCO3)[C@H](C(=O)O)[C@H]1c1ccc(OC)cc1`, the inhibition was 60.5% in test [8]; 2.24% in test [9]; 5.56% in test [13]; -5.54% in test [1]; -5.48% in [2]; -9.03% in test [4]. Also, the inhibition in [5] is 84.7%; in test [6], -3.74%; in [10] it was -0.23%; in test [7], 21.1%; in [11] it was 2.68%; in test [12], 4.49%.
On to `Cc1nc(C(=O)N2CCC[C@H]2Cc2nnc(-c3ccccc3)o2)c(-c2ccccc2F)s1`, for which the inhibition in [8] is -5.22%; in test [1], 9.45%; in test [2], -1.4%; in [3], -8.01%; in test [4], 23.9%; in [5] it was 57.6%. Moreover, the inhibition in test [6] is 7.87%; in test [10], 12.9%; in test [7], 14.6%; in [11], -1.8%; in test [12] it was -2.37%.
Consider `CCCCC#Cc1nc(NC)c2ncn([C@@H]3O[C@H](CO)[C@@H](O)[C@H]3O)c2n1`, for which the inhibition in [8] is -8.18%; in [1], 8.1%; in [2] it was -4.88%; in test [3], 13.6%; in [4], -8.99%; in test [5] it was 3.46%. Besides, the inhibition in test [6] is 0.72%; in test [10], 8.59%; in [7], -5.45%; in [11] it was 14.1%; in [12], -7.18%.
Regarding `CCCCCCCCCCCCCCCCOC[C@H](COP(=O)([O-])OCC[N+](C)(C)C)OC(C)=O`, the inhibition in test [8] is 16.4%; in test [9], 68.8%; in test [1], 71.6%; in test [2], 3.24%; in test [3], 19.2%; in test [4] it was 28.1%. Also, the results for the inhibition in test [10] and in test [7] were 57.9% and 7.75%, respectively.
